target: T1, E. coli OGDHc E1 (Escherichia coli, UniProt P0AFG3); experiment: E. coli OGDHc E1 inhibitory activity assay (DCPIP reduction); type: biochemical; settings: [Compound] = 250 μM, [ThDP] = 50 μM
T1 sequence (P0AFG3 1-933): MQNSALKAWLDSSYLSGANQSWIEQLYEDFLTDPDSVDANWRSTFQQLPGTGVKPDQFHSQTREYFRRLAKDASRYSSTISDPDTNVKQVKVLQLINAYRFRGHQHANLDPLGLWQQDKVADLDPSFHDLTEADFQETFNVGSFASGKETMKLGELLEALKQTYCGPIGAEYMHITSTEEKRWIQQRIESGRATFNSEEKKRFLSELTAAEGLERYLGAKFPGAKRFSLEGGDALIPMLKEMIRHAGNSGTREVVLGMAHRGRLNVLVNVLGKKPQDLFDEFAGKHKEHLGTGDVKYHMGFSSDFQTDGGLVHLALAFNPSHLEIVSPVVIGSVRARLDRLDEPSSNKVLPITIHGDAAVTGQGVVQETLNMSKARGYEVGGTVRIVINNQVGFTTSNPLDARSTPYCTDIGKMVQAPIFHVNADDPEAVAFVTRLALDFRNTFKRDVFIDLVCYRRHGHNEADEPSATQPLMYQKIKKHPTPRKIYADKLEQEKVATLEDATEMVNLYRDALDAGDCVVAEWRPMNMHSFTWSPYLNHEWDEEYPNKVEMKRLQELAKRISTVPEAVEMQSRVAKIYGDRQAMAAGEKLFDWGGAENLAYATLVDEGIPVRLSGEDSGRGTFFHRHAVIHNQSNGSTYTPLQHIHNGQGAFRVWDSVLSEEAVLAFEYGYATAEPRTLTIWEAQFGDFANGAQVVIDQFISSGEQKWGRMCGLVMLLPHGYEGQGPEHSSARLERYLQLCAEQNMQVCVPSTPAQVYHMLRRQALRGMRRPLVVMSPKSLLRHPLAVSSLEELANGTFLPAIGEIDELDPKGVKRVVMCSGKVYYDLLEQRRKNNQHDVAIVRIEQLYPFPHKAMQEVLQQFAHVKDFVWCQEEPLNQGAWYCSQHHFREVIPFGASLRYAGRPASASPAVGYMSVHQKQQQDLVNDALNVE
Experimental: E. coli OGDHc E1 inhibitory activity assay. E. coli OGDHc E1 was from our previous work 5 and had been donated by R. Frank. Its activity was determined by monitoring DCPIP reduction at 600 nm using a microplate reader (CLARIOstar) and conducted as described 1,2 with some modifications. The percentage inhibition of compounds against E. coli OGDHc E1 was assayed at a final concentration of 250 µM. The reaction buffer (50 mM KH 2PO4 and 2 mM MgCl 2, pH 7) contained 50 µM ThDP (or 125 µM in the competition assay), 0.5 mM DCPIP, and 6.7 mg/ml E. coli OGDHc E1. The reaction mixture was preincubated at 37 °C for 60 min, then reaction was initiated by adding α-ketoglutarate to a final concentration of 10 mM. To determine the IC 50, ThDP concentration was lowered to 30 µM, and inhibitor concentration was varied (2-1000 µM). Specific activity was calculated using the molar […]
for the PDHc E1 assay. […] 5 […]

`Cc1ncc(Cn2cc(CCNC(=O)c3cccc(C#N)c3)nn2)c(N)n1` [Compound 20a] and `Cc1ncc(Cn2cc(CCOC(=O)c3cccc(C#N)c3)nn2)c(N)n1` [Compound 14a] cannot be ordered by inhibition at 250 µM: less than 20% for the first, less than 20% for the second.

First: Cc1ncc(Cn2cc(CCCn3cc(-c4ccc(F)cc4)nn3)nn2)c(N)n1 [Compound 16b]
Second: COc1ccc(-c2cn(CCc3cn(Cc4cnc(C)nc4N)nn3)nn2)cc1 [Compound 17a]
The inhibition at 250 µM of the first is lower: less than 20% for the first, 21 ± 3% for the second.

First: COc1ccccc1C(=O)NCCCc1cn(Cc2cnc(C)nc2N)nn1 [Compound 22b]
Second: COc1ccccc1C(=O)NCCc1cn(Cc2cnc(C)nc2N)nn1 [Compound 22a]
The inhibition at 250 µM of the first is lower: 56 ± 3% for the first, 80 ± 4% for the second.

First: Cc1ncc(Cn2cc(CCCCn3cc(-c4ccccc4)nn3)nn2)c(N)n1 [Compound 15c]
Second: Cc1ncc(Cn2cc(CCn3cc(-c4ccccc4)nn3)nn2)c(N)n1 [Compound 15a]
The inhibition at 250 µM of the first is lower: less than 20% for the first, 23 ± 3% for the second.

Going from `Cc1ncc(Cn2cc(CCCCO)nn2)c(N)n1` [Compound 9c] to `Cc1ncc(Cn2cc(CCC(=O)NO)nn2)c(N)n1` [Compound 24a], the inhibition at 250 µM rises from 51 ± 2% to 73 ± 2%.

Compared with `Cc1ncc(Cn2cc(CCCNS(=O)(=O)C(F)(F)F)nn2)c(N)n1` [Compound 18b], `COc1cccc(C(=O)NCCCc2cn(Cc3cnc(C)nc3N)nn2)c1` [Compound 21b] is higher in inhibition at 250 µM: 42 ± 3% for the first, 58 ± 5% for the second.

`Cc1ncc(Cn2cc(CCOC(=O)c3cccc(-c4noc(C(F)(F)F)n4)c3)nn2)c(N)n1` [Compound 13a] and `Cc1ncc(Cn2cc(CCNC(=O)c3cccc(-c4noc(C(F)(F)F)n4)c3)nn2)c(N)n1` [Compound 19a] cannot be ordered by inhibition at 250 µM: less than 20% for the first, less than 20% for the second.

Compared with `Cc1ncc(C[n+]2csc(CCO[P@@](=O)(O)OP(=O)(O)O)c2C)c(O)n1` [OxThDP 7b, oxythiamine diphosphate, reference compound], `Cc1ncc(Cn2cc(CCCCC(=O)Nc3ccccc3N)nn2)c(N)n1` [Compound 26c] is lower in inhibition at 250 µM: 62 ± 4% for the first, 30 ± 2% for the second.

same assay, conditions: increased ThDP: [Compound] = 250 μM, [ThDP] = 125 μM

`Cc1ncc(Cn2cc(CCCn3cc(-c4ccc(F)cc4)nn3)nn2)c(N)n1` [Compound 16b] and `COc1ccc(-c2cn(CCc3cn(Cc4cnc(C)nc4N)nn3)nn2)cc1` [Compound 17a] cannot be ordered by inhibition at 250 µM: less than 20% for the first, less than 20% for the second.

`Cc1ncc(Cn2cc(CCCCn3cc(-c4ccccc4)nn3)nn2)c(N)n1` [Compound 15c] and `Cc1ncc(Cn2cc(CCn3cc(-c4ccccc4)nn3)nn2)c(N)n1` [Compound 15a] cannot be ordered by inhibition at 250 µM: less than 20% for the first, less than 20% for the second.

In the case of `Cc1ncc(C[n+]2csc(CCO[P@@](=O)(O)OP(=O)(O)O)c2C)c(O)n1` [OxThDP 7b, oxythiamine diphosphate, reference compound], the inhibition at 250 µM is reported as 41 ± 4%.

tested on: P. falciparum strain 3D7; experiment: Anti-plasmodial activity assay (SYBR-Safe); type: cell-based, Plasmodium falciparum; settings: Plasmodium falciparum, 3D7, 3D7, [Thiamine] = 2.97 μM; read-out: IC50 of Suppression of P. falciparum proliferation, [Thiamine] = 2.97 μM
Experimental: Next the effects of the thiamine/ThDP analogues on in vitro proliferation of the 3D7 strain of P. falciparum were determined. […] Parasite proliferation was measured by SYBR-Safe assay of parasite DNA.[11],[15]
(§1) Cell-based assays (Results)
(§2) Anti-plasmodial activity assay. This study used human malaria parasite P. falciparum strain 3D7 (chloroquine-sensitive) and the same strain expressing an extra copy of TPK with a GFP-tag ( PfTPK-GFP) generated as previously described. 9 The intraerythrocytic stage of the parasites were maintained essentially as previously described. 10 Compounds were tested at concentrations up to a highest final […]
(§3) were prepared in dimethyl sulfoxide (DMSO) followed by dilution in RPMI 1640 medium in the absence of thiamine or in the presence of 2.97 µM (or 297 µM) thiamine. The final concentration of DMSO that the parasites were exposed to never exceeded 0.05%. Two-fold serial dilutions were then performed, with each concentration tested in triplicate. The assay was performed as described 11 with some modifications. Experiments were initiated with parasites in the ring-stage, a parasitemia level of 0.5% and a haematocrit of 2%. Chloroquine (0.5 µM) was used as the positive control ( i.e. complete inhibition of parasite proliferation), and parasites maintained in the absence of any inhibitor represented 100% parasite proliferation. The final volume in each well was 200 µL. Plates were incubated at 37 °C, under an atmosphere of 96% nitrogen, 3% carbon dioxide and 1% oxygen. Parasite proliferation was measured by performing SYBR-Safe assay. 12 The concentration at which the compound suppresses […]
Excel and analysed by non-linear regression plot using GraphPad Prism. The data were averaged from three independent experiments. […]

First: Cc1ncc(Cn2cc(CCCn3cc(-c4ccc(F)cc4)nn3)nn2)c(N)n1 [Compound 16b]
Second: COc1ccc(-c2cn(CCc3cn(Cc4cnc(C)nc4N)nn3)nn2)cc1 [Compound 17a]
The IC50 of the first is higher: greater than 200 µM for the first, 156 ± 13 µM for the second. The second is the more potent here.

same assay, conditions: Plasmodium falciparum, 3D7, 3D7, [Thiamine] = 297 μM; read-out: IC50 of Suppression of P. falciparum proliferation, [Thiamine] = 297 μM

Compared with `Cc1ncc(Cn2cc(CCCn3cc(-c4ccc(F)cc4)nn3)nn2)c(N)n1` [Compound 16b], `COc1ccc(-c2cn(CCc3cn(Cc4cnc(C)nc4N)nn3)nn2)cc1` [Compound 17a] is lower in IC50: greater than 200 µM for the first, 169 ± 11 µM for the second. The second is the more potent here.

same assay, conditions: Plasmodium falciparum, 3D7, 3D7, thiamine-free medium; read-out: IC50 of Suppression of P. falciparum proliferation, Thiamine-free

Going from `Cc1ncc(Cn2cc(CCCn3cc(-c4ccc(F)cc4)nn3)nn2)c(N)n1` [Compound 16b] to `COc1ccc(-c2cn(CCc3cn(Cc4cnc(C)nc4N)nn3)nn2)cc1` [Compound 17a], the IC50 falls from greater than 200 µM to 129 ± 9 µM. The second is the more potent here.

tested on: not listed separately; experiment: in vitro; type: cell-based, human; settings: human
Experimental: as §1, §2, §3
Excel and analysed by non-linear regression plot using GraphPad Prism. The data were averaged from three independent experiments.
Cytotoxicity assay. This study used HFF cells (human foreskin fibroblasts) as described 13 with some modifications. The HFF cells were seeded in 96-well plates at a density of about 13 x 10^4 cells/mL.
Plates were incubated at 37 °C in a humidified 5% carbon dioxide incubator for 96 h. A sample of the supernatant (150 µL) was then carefully aspirated from each well and discarded. The plates were then stored at -80 °C. SYBR- Safe assay was used. The plates were thawed, SYBR-Safe lysis solution (150 µL) was added to each well and mixed via pipetting to ensure the HFF cells were detached from the plate and lysed. The plates were then processed as described for the anti-plasmodial assay.

`Cc1ncc(Cn2cc(CCCn3cc(-c4ccc(F)cc4)nn3)nn2)c(N)n1` [Compound 16b] and `COc1ccc(-c2cn(CCc3cn(Cc4cnc(C)nc4N)nn3)nn2)cc1` [Compound 17a] cannot be ordered by IC50 at 96 h: greater than 200 µM for the first, greater than 200 µM for the second.

Source: article PMC10184313, “Inhibition of Thiamine Diphosphate-Dependent Enzymes by Triazole-Based Thiamine Analogues” (ACS Medicinal Chemistry Letters, 2023)
